# Key:
# Assay type in all cases: in vivo
# Leptochloa chinensis [1] = test: Weeding effect in post-emergence stage, greenhouse pot spray
# Protocol: (§1) The above growth control rates are fresh weight control rates.
# (§2) (1) Experiment on weeding effect in post-emergence stage: monocotyledonous and dicotyledonous weed seeds and major crop seeds (wheat, corn, rice, soybean, cotton, oilseed rape, millet, Sorghum) were placed in plastic pots filled with soil, then covered with 0.5-2 cm of soil, allowed to grow in a good greenhouse environment. After 2 weeks of sowing, the test plants were treated. The tested compounds of the present invention were respectively dissolved in acetone, then added with Tween 80, diluted with a certain amount of water to obtain a solution with a certain concentration, added with 1000 g/ha of emulsified methyl oleate as a synergist, and sprayed with a spray tower onto the plants. After the application, the plants were cultured for 3 weeks in the greenhouse, and then the experimental results of the weeding were listed in Table 2-3.
# [2] = tested on: Amaranthus retroflexus L.; test: as above; settings: 240 g/ha active ingredient, plus water 450 kg/ha; weeds 2-3 leaf stage; 3 weeks after application
# Protocol: as §1, §2
# Digitaria sanguinalis [3] = test: as above
# Protocol: as §1, §2
# Echinochloa crusgalli [4] = test: as above
# Protocol: as §1, §2
# Setaria viridis = test: as above
# Excerpt: (§3) The activity level criteria for plant damage (i.e., growth control rate) are as follows: • Level 5: growth control rate is above 85%; • Level 4: growth control rate is greater than or equal to 60% and less than 85%; • Level 3: growth control rate is greater than or equal to 40% and less than 60%; • Level 2: growth control rate is greater than or equal to 20% and less than 40%; • Level 1: growth control rate is greater than or equal to 5% and less than 20%; • Level 0: growth control rate is less than 5%.
# as §1, §2
# [5] = tested on: rice (indica rice huanghuazhan); test: Post-emergence stage crop damage, greenhouse pot spray; settings: for plant damage level, rice (indica rice huanghuazhan), post-emergence: 240 g/ha active ingredient, plus water 450 kg/ha, 3 weeks after application
# Protocol: as §2
# japonica rice = test: as above
# Excerpt: as §3, §1, §2
# rice = test: Pre-emergence stage crop selectivity; settings: dose not given
# Protocol: (§4) Seeds of monocotyledonous and dicotyledonous weeds and main crops (e.g. wheat, corn, rice, soybean, cotton, oilseed rape, millet and Sorghum) were put into a plastic pot loaded with soil and covered with 0.5-2 cm soil. The test compounds of the present invention was dissolved with acetone, then added with tween 80, diluted by a certain amount of water to reach a certain concentration, and sprayed immediately after sowing. The obtained seeds were incubated for 4 weeks in the greenhouse after spraying and the test results were observed. It was observed that the herbicide mostly had excellent effect at the application rate of 250 g a.i./ha, especially to weeds such as Echinochloa crusgalli, Digitaria sanguinalis, Leptochloa chinensis, and Abutilon theophrasti, etc. . . . And many compounds had good selectivity for corn, wheat, rice, soybean, and oilseed rape, etc. . . .
# Leptochloa chinensis [6] = test: Weed effect in pre-emergence stage; settings: direct seeding of rice; dose not given
# Protocol: as §4
# Abutilon theophrasti = test: Weed effect in pre-emergence stage; settings: direct seeding of rice; dose not given
# Protocol: as §4
# Digitaria sanguinalis [7] = test: Weed effect in pre-emergence stage; settings: direct seeding of rice; dose not given
# Protocol: as §4
# Echinochloa crusgalli [8] = test: Weed effect in pre-emergence stage; settings: direct seeding of rice; dose not given
# Protocol: as §4
# [9] = 240 g/ha active ingredient, plus water 450 kg/ha, weeds 2-3 leaf stage, 3 weeks after application
Compound,"weeding effect in post-emergence stage, Leptochloa chinensis (activity level) (Leptochloa chinensis [1]; [9])","weeding effect in post-emergence stage, Leptochloa chinensis (activity level) (Leptochloa chinensis [1]; Dose 30 g/ha)","weeding effect in post-emergence stage, Leptochloa chinensis (activity level) (Leptochloa chinensis [1]; Dose 60 g/ha)","weeding effect in post-emergence stage, Leptochloa chinensis (activity level) (Leptochloa chinensis [1]; Dose 120 g/ha)","weeding effect in post-emergence stage, Amaranthus retroflexus L. (activity level) [2]","weeding effect in post-emergence stage, Digitaria sanguinalis (activity level) (Digitaria sanguinalis [3]; [9])","weeding effect in post-emergence stage, Digitaria sanguinalis (activity level) (Digitaria sanguinalis [3]; Dose 30 g/ha)","weeding effect in post-emergence stage, Digitaria sanguinalis (activity level) (Digitaria sanguinalis [3]; Dose 60 g/ha)","weeding effect in post-emergence stage, Digitaria sanguinalis (activity level) (Digitaria sanguinalis [3]; Dose 120 g/ha)","weeding effect in post-emergence stage, Echinochloa crusgalli (activity level) (Echinochloa crusgalli [4]; [9])","weeding effect in post-emergence stage, Echinochloa crusgalli (activity level) (Echinochloa crusgalli [4]; Dose 30 g/ha)","weeding effect in post-emergence stage, Echinochloa crusgalli (activity level) (Echinochloa crusgalli [4]; Dose 60 g/ha)","weeding effect in post-emergence stage, Echinochloa crusgalli (activity level) (Echinochloa crusgalli [4]; Dose 120 g/ha)","weeding effect in post-emergence stage, Setaria viridis (activity level) (Setaria viridis; Dose 30 g/ha)","weeding effect in post-emergence stage, Setaria viridis (activity level) (Setaria viridis; Dose 60 g/ha)","weeding effect in post-emergence stage, Setaria viridis (activity level) (Setaria viridis; Dose 120 g/ha)","plant damage level, rice (indica rice huanghuazhan), post-emergence [5]","plant damage level, indica rice, post-emergence ([5]; Dose 30 g/ha)","plant damage level, indica rice, post-emergence ([5]; Dose 60 g/ha)","plant damage level, indica rice, post-emergence ([5]; Dose 120 g/ha)",further results
O=C1CCCC(=O)C1C(=O)c1ccn2c(C3CC3)nnc2c1Cl [Compound 2],5 (Level 5: growth control rate is above 85%),5 (Level 5: growth control rate is above 85%),5 (Level 5: growth control rate is above 85%),5 (Level 5: growth control rate is above 85%),5 (Level 5: growth control rate is above 85%),5 (Level 5: growth control rate is above 85%),5 (Level 5: growth control rate is above 85%),5 (Level 5: growth control rate is above 85%),5 (Level 5: growth control rate is above 85%),5 (Level 5: growth control rate is above 85%),5 (Level 5: growth control rate is above 85%),5 (Level 5: growth control rate is above 85%),5 (Level 5: growth control rate is above 85%),5 (Level 5: growth control rate is above 85%),5 (Level 5: growth control rate is above 85%),5 (Level 5: growth control rate is above 85%),0 (Level 0: growth control rate is less than 5%),0 (Level 0: growth control rate is less than 5%),0 (Level 0: growth control rate is less than 5%),0 (Level 0: growth control rate is less than 5%),"plant damage level, japonica rice, post-emergence (japonica rice; Dose 30 g/ha): 0 (Level 0: growth control rate is less than 5%); plant damage level, japonica rice, post-emergence (japonica rice; Dose 60 g/ha): 0 (Level 0: growth control rate is less than 5%); plant damage level, japonica rice, post-emergence (japonica rice; Dose 120 g/ha): 0 (Level 0: growth control rate is less than 5%); safety for direct seeding of rice, pre-emergence (rice): safe and efficient; sealing effects on Leptochloa chinensis, pre-emergence (Leptochloa chinensis [6]): excellent sealing effects; sealing effects on Abutilon theophrasti, pre-emergence (Abutilon theophrasti): excellent sealing effects; sealing effects on Digitaria sanguinalis, pre-emergence (Digitaria sanguinalis [7]): excellent sealing effects; sealing effects on Echinochloa crusgalli, pre-emergence (Echinochloa crusgalli [8]): excellent sealing effects"
O=C1CCCC(=O)C1C(=O)c1ccn2c(C3CC3(F)F)nnc2c1Cl (centres unmarked) [Compound 87],5 (Level 5: growth control rate is above 85%),–,–,–,5 (Level 5: growth control rate is above 85%),4 (Level 4: growth control rate is greater than or equal to 60% and less than 85%),–,–,–,4 (Level 4: growth control rate is greater than or equal to 60% and less than 85%),–,–,–,–,–,–,0 (Level 0: growth control rate is less than 5%),–,–,–,–
COc1nnc2c(Cl)c(C(=O)C3C(=O)CCCC3=O)ccn12 [Compound 114],5 (Level 5: growth control rate is above 85%),–,–,–,5 (Level 5: growth control rate is above 85%),5 (Level 5: growth control rate is above 85%),–,–,–,5 (Level 5: growth control rate is above 85%),–,–,–,–,–,–,0 (Level 0: growth control rate is less than 5%),–,–,–,–
CSc1nnc2c(Cl)c(C(=O)C3C(=O)CCCC3=O)ccn12 [Compound 118],5 (Level 5: growth control rate is above 85%),–,–,–,5 (Level 5: growth control rate is above 85%),5 (Level 5: growth control rate is above 85%),–,–,–,5 (Level 5: growth control rate is above 85%),–,–,–,–,–,–,0 (Level 0: growth control rate is less than 5%),–,–,–,–
O=C(c1ccn2c(C3CC3)nnc2c1Cl)C1C(=O)C2CCC(C2)C1=O (centres unmarked) [Compound 274],5 (Level 5: growth control rate is above 85%),5 (Level 5: growth control rate is above 85%),5 (Level 5: growth control rate is above 85%),5 (Level 5: growth control rate is above 85%),5 (Level 5: growth control rate is above 85%),5 (Level 5: growth control rate is above 85%),5 (Level 5: growth control rate is above 85%),5 (Level 5: growth control rate is above 85%),5 (Level 5: growth control rate is above 85%),5 (Level 5: growth control rate is above 85%),5 (Level 5: growth control rate is above 85%),5 (Level 5: growth control rate is above 85%),5 (Level 5: growth control rate is above 85%),5 (Level 5: growth control rate is above 85%),5 (Level 5: growth control rate is above 85%),5 (Level 5: growth control rate is above 85%),0 (Level 0: growth control rate is less than 5%),0 (Level 0: growth control rate is less than 5%),0 (Level 0: growth control rate is less than 5%),0 (Level 0: growth control rate is less than 5%),"plant damage level, japonica rice, post-emergence (japonica rice; Dose 30 g/ha): 0 (Level 0: growth control rate is less than 5%); plant damage level, japonica rice, post-emergence (japonica rice; Dose 60 g/ha): 0 (Level 0: growth control rate is less than 5%); plant damage level, japonica rice, post-emergence (japonica rice; Dose 120 g/ha): 0 (Level 0: growth control rate is less than 5%); safety for direct seeding of rice, pre-emergence (rice): safe and efficient; sealing effects on Leptochloa chinensis, pre-emergence (Leptochloa chinensis [6]): excellent sealing effects; sealing effects on Abutilon theophrasti, pre-emergence (Abutilon theophrasti): excellent sealing effects; sealing effects on Digitaria sanguinalis, pre-emergence (Digitaria sanguinalis [7]): excellent sealing effects; sealing effects on Echinochloa crusgalli, pre-emergence (Echinochloa crusgalli [8]): excellent sealing effects"

# From patent US12240843B2, “Substituted 1,2,4-triazolo[4,3-a]pyridine derivative and preparation method, herbicidal composition and application thereof” (Qingdao Kingagroot Chemical Compound Co., Ltd., priority 2019, dated 2025)
